# According to Sander's compilation of Henry's law constants (doi:10.1016/s1387-3806(02)00927-2):
# Assay: Henry solubility constant Hcp at 295 K (mol/(m3 Pa))
# Details: reference: Karl et al. (2003)
row,SMILES,Henry solubility constant Hcp at 295 K
1,Cc1ccccc1 [methylbenzene],0.0014
2,"CC1=CC=C(C(C)C)CC1 [1-methyl-4-(1-methylethyl)-1,3-cyclohexadiene]",0.00045
3,CCCc1ccccc1 [propylbenzene],0.0015
4,c1ccccc1 [benzene],0.0018
5,"Cc1cccc(C)c1 [1,3-dimethylbenzene]",0.0013
6,"Cc1cc(C)cc(C)c1 [1,3,5-trimethylbenzene]",0.002

# Assay: Henry solubility constant Hcp at 298.15 K (mol/(m3 Pa))
# Details: reference: Karl et al. (2003)
row,Henry solubility constant Hcp,SMILES
1,0.17,COc1nccnc1CC(C)C [2-isobutyl-3-methoxypyrazine]
2,4.9,CCc1cccc(O)c1 [1-hydroxy-3-ethylbenzene]
3,0.033,CC/C=C/CCOC(C)=O [(E)-3-hexenyl ethanoate]
4,0.031,CC/C=C\CCOC(C)=O [(Z)-3-hexenyl ethanoate]
5,0.14,CCC/C=C/C=O [(E)-2-hexenal]
6,0.015,CCCCCCOC(C)=O [hexyl ethanoate]

# Assay: Henry solubility constant Hcp at 291 K (mol/(m3 Pa))
# Details: reference: Karl et al. (2003)
row,SMILES,Henry solubility constant Hcp at 291 K
1,"C=CC(=C)C [2-methyl-1,3-butadiene]",0.00029
